Results published in patent US20140187556A1, “ANTI-AMYLOID COMPOUNDS AND METHODS” (Treventis Corporation, priority 2011, published 2014).

Legend:
[1] = Metabolic stability in mouse liver microsomes; assay type: in vitro ADME; settings: 1 μM compound, 0.5 mg/mL microsomal protein, 1 mM NADPH
Experimental: This assay is used to determine the percent remaining and intrinsic clearance of a test compound incubated with pooled mouse liver microsomes in the presence of NADPH. Further details on this method may be found in Jeffrey P, et al., Utility of metabolic stability screening: comparison of in vitro and in vivo clearance. enobiotica. 2001 August-September; 31(8-9):591-8 and Lin J H, et al., Role of pharmacokinetics and metabolism in drug discovery and development. Pharmacol Rev. 1997; 49(4):403-49; each of which is hereby incorporated by reference. Test compound was formulated in 300 μL of DMSO at 10 mM and was diluted to 1 μM with final concentration of organic solvent <0.25% for the experiment. Pooled liver microsomes were prepared from male mice, with 1 mM NADPH. Test compound was incubated at 37 degrees Celsius in buffer containing 0.5 mg/mL microsomal protein; the reaction was initiated by adding cofactors and sampled at 0, 10, 20, 30, and 60 minutes. A positive control (5 μM testosterone) was incubated and initiated in parallel for quality control. Samples were analyzed using an LTQ-Orbitrap XL mass spectrometer; HRMS was used to determine the peak area response ratio (peak area corresponding to test compound or control divided by that of an analytical internal standard) without running a standard curve.
Results were reported for selected compounds in the table of Example 1, as % test compound remaining after 60 minutes. Compounds which have less than about 5% remaining are not considered to be metabolically stable in mouse liver microsomes, while compounds with more than about 5% remaining are considered to be metabolically stable in mouse liver microsomes.

[2] = Blood-brain barrier penetration potential using MDR1-MDCK cell monolayers; assay type: in vitro ADME; settings: dog
Source text: This assay is used to determine the blood-brain barrier (BBB) penetration potential of a test compound using MDR1-MDCK cell monolayers. Further details on this method may be found in Taub M E, et al., Functional assessment of multiple Pglycoprotein (P-gp) probe substrates: Influence of cell line and modulator concentration on P-gp activity. Drug Metab Dispos. 2005 November; 33(11): 1679-87 and Wang Q, et al., Evaluation of the MDR-MDCK cell line as a permeability screen for the blood-brain barrier. Int J. Pharm. 2005 Jan. 20; 288(2):349-59; each of which is hereby incorporated by reference. Test compound was formulated in 300 μL of DMSO at 10 mM and diluted to 5 μM in HBSSg with maximum DMSO concentration not greater than 1%. Confluent monolayers of MDR1-MDCK cells, 7 to 11 days old, were used. A receiver well, having apical and basolateral sides at pH 7.4, was used with 1% BSA in modified Hanks buffer (HBSSg). Two monolayers were dosed with test compound in each direction (N=2). Apical side dosing was used for A-B assessment and basolateral side was used for B-A assessment; taken together, this information provides a bidirectional permeability potential. Apical and basolateral sides were sampled at 120 minutes and concentrations of test compound were determined using an LC-MS/MS method with a minimum 4 point calibration curve. Apparent permeability (Papp) in both directions (A-B and B-A) was calculated, as was the efflux ratio (Papp B-A)/(Papp A-B).

O=[N+]([O-])c1ccc(-c2cccc(C(O)C(F)(F)F)c2)cc1NCc1ccccc1 (stereo not shown) [TRV 1140, 1-(3′-(benzylamino)-4′-nitro-[1,1′-biphenyl]-3-yl)-2,2,2-trifluoroethanol]
Stability in mouse liver microsomes (% test compound remaining after 60 min) [1]: 34% | Papp A→B at 120 min, 5 µM ([2]; MDCK-MDR1, apical dosing, pH 7.4, read-out: Papp A-B × 10^−6 cm/s): 15.3 ×10⁻⁶ cm/s | Papp B→A at 120 min, 5 µM ([2]; MDCK-MDR1, basolateral dosing, pH 7.4, read-out: Papp B-A × 10^−6 cm/s): 12.4 ×10⁻⁶ cm/s | efflux ratio at 120 min, 5 µM ([2]; MDCK-MDR1, pH 7.4, read-out: Efflux ratio (Papp B-A)/(Papp A-B)): 0.8
